Data from ChEMBL document CHEMBL5291721, “A preclinical secondary pharmacology resource illuminates target-adverse drug reaction associations of marketed drugs” (Nat Commun, 2023).

Tests used:
D(1A) dopamine receptor [1] = target: T1, D(1A) dopamine receptor (Homo sapiens, UniProt P21728)
[2] = target: T2, 5-hydroxytryptamine receptor 1A (Homo sapiens, UniProt P08908)
T2 sequence (P08908 whole entry): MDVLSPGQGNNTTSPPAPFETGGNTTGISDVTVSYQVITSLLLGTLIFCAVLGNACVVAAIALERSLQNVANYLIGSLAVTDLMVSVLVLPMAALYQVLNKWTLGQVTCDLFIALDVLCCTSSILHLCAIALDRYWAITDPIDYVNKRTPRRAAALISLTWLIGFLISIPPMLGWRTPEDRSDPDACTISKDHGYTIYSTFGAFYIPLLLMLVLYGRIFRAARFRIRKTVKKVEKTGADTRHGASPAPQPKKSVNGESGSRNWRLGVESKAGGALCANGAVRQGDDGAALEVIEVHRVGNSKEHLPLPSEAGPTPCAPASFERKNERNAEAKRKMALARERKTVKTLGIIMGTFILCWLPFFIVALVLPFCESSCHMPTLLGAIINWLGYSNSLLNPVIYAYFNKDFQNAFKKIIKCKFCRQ

Mu-type opioid receptor = Mu-type opioid receptor (Homo sapiens, UniProt P35372)
Chain of Mu-type opioid receptor (P35372 whole entry): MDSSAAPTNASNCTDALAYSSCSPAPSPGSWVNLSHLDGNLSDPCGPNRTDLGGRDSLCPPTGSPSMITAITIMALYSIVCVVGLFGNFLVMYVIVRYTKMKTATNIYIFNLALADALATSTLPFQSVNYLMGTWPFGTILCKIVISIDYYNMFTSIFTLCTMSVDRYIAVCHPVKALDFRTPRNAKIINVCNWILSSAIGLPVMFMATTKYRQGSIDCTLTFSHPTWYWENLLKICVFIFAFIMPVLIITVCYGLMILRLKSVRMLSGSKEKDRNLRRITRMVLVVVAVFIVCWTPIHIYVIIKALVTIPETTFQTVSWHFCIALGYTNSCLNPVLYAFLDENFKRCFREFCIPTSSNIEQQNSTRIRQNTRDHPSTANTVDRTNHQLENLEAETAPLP

[3] = target: Prostaglandin G/H synthase 1 (Homo sapiens, UniProt P23219); format: functional
Chain of Prostaglandin G/H synthase 1 (P23219 whole entry): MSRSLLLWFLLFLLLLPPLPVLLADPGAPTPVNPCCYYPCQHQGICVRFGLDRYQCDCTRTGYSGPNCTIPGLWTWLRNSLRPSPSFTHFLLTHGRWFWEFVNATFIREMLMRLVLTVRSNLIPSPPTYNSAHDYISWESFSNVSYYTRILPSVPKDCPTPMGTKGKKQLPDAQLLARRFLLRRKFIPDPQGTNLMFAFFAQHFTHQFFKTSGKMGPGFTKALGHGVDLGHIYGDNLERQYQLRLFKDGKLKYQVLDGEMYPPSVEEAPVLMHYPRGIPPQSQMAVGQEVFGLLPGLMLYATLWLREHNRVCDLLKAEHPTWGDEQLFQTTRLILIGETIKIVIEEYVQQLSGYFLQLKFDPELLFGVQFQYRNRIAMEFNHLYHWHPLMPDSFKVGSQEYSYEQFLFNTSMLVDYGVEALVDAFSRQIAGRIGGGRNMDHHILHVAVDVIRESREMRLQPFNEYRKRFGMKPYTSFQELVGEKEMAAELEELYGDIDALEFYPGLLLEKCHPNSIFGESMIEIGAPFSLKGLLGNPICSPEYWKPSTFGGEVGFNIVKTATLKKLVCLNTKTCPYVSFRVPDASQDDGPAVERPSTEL

Thromboxane A2 receptor = target: T3, Thromboxane A2 receptor (Homo sapiens, UniProt P21731); format: functional, cell-based
T3 sequence (P21731 whole entry): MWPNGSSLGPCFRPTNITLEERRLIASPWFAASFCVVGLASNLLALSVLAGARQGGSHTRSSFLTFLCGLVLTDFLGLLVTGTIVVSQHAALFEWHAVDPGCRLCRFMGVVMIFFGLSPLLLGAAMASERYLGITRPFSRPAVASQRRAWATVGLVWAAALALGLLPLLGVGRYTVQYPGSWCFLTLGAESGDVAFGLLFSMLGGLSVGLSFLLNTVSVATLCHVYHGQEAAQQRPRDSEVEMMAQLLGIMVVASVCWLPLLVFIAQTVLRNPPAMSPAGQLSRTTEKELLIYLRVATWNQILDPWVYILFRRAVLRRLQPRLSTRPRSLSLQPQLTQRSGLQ

[4] = target: T4, Alpha-2B adrenergic receptor (Homo sapiens, UniProt P18089)
T4 sequence (P18089 whole entry): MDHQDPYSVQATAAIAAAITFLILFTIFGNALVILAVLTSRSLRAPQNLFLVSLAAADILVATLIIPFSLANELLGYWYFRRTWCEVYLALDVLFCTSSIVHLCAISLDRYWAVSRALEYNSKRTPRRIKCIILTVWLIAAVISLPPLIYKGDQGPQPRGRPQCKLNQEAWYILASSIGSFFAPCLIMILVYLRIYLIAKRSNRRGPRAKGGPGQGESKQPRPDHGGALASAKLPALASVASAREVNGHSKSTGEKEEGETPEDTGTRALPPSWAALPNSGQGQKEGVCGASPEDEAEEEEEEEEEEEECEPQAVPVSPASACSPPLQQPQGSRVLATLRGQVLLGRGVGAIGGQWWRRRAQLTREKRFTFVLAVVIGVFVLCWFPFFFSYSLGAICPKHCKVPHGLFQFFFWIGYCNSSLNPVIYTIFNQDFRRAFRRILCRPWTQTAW

[5] = target: Beta-2 adrenergic receptor (Homo sapiens, UniProt P07550)
Chain of Beta-2 adrenergic receptor (P07550 whole entry): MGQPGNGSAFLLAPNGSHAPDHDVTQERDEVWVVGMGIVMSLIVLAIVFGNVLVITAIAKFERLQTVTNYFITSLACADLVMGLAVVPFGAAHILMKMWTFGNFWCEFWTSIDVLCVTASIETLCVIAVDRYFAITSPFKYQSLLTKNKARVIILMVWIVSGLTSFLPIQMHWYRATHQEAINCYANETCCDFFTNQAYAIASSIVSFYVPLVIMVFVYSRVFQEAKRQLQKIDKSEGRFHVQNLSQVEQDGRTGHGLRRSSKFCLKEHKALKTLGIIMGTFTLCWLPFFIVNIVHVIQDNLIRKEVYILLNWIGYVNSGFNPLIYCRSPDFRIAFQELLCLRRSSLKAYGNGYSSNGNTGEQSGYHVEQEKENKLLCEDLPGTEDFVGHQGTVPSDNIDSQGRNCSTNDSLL

[6] = target: Voltage-dependent L-type calcium channel subunit alpha-1C (Rattus norvegicus, UniProt P22002); format: functional
Chain of Voltage-dependent L-type calcium channel subunit alpha-1C (P22002 whole entry): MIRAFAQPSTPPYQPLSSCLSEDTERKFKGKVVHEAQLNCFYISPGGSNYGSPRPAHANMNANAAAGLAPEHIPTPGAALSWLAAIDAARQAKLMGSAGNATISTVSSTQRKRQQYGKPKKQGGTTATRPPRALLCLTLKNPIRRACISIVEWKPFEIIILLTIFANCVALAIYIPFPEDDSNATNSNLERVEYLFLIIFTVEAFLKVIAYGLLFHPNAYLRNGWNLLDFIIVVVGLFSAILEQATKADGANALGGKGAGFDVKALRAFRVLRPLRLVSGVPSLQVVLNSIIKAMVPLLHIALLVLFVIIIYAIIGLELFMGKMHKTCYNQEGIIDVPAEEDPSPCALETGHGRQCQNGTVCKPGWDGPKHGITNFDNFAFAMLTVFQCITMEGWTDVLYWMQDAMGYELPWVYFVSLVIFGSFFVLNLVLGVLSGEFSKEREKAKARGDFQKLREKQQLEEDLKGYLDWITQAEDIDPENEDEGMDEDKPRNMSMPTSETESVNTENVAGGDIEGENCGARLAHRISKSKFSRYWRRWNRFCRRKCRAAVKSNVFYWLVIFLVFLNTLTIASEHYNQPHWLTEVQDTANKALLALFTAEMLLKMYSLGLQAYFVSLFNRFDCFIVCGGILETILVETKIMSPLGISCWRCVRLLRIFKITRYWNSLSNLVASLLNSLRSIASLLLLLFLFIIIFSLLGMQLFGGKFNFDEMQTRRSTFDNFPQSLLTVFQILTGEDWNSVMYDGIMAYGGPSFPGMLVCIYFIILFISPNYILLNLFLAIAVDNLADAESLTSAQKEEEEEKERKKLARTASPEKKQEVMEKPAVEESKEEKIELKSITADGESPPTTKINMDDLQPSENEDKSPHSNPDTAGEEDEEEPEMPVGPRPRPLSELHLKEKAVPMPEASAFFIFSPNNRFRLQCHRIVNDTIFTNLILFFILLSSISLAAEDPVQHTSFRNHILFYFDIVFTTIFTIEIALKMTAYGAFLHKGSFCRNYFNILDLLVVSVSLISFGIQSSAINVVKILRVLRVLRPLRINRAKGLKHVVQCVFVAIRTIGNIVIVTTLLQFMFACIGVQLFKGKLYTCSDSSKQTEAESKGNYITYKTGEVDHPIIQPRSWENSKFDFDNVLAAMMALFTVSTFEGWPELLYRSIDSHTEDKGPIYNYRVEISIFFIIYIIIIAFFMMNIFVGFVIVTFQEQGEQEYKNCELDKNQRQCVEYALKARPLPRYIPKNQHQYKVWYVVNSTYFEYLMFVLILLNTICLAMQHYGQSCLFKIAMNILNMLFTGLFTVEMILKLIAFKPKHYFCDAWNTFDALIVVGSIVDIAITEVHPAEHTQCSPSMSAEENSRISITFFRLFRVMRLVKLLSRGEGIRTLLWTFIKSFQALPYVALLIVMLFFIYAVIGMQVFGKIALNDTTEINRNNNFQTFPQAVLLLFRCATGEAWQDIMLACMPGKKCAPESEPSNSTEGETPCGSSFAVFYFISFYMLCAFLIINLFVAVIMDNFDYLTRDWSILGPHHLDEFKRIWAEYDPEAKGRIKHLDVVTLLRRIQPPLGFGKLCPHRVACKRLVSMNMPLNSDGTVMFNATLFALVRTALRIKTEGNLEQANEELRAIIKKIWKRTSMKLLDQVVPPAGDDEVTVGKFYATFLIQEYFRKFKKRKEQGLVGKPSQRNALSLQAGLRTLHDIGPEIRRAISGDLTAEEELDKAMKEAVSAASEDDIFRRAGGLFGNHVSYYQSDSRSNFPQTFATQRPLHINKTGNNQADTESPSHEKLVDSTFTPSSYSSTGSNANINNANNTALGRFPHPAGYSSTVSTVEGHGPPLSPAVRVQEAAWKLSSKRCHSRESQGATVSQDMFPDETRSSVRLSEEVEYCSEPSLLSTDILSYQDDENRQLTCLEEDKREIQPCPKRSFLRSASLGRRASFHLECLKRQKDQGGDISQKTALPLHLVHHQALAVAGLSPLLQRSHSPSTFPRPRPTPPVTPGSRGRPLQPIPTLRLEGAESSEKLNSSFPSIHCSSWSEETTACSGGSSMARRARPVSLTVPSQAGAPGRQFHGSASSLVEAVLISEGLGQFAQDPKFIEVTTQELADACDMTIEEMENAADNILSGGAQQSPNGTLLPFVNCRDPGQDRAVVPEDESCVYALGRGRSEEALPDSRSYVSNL

[7] = target: T5, Gastrin/cholecystokinin type B receptor (Homo sapiens, UniProt P32239)
T5 sequence (P32239 whole entry): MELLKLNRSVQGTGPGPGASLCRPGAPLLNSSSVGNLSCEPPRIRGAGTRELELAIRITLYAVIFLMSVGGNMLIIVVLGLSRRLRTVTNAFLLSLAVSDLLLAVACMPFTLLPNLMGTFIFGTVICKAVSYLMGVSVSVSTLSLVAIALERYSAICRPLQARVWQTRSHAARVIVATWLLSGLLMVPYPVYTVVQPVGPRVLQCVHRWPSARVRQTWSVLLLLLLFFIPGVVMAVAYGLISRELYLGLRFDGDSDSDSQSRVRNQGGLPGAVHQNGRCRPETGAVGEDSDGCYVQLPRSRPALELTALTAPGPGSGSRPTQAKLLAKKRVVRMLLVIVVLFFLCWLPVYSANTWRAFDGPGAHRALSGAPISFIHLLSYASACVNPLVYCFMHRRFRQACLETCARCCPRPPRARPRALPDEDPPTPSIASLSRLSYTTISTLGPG

Cannabinoid receptor 1 = Cannabinoid receptor 1 (Homo sapiens, UniProt P21554); format: functional, cell-based
Chain of Cannabinoid receptor 1 (P21554 whole entry): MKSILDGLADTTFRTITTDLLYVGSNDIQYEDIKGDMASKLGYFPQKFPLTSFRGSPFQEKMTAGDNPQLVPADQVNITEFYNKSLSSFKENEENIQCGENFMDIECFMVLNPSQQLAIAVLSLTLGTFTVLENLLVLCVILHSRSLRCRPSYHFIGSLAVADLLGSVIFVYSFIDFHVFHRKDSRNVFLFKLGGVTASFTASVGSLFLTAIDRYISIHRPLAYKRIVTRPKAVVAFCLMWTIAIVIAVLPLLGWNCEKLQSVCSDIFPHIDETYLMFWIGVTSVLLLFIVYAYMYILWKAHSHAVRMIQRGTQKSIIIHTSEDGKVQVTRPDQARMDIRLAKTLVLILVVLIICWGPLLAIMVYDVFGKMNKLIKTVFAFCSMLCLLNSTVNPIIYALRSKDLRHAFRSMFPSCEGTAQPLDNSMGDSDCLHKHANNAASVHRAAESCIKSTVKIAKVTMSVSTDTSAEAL

D(1A) dopamine receptor [8] = target: T1, D(1A) dopamine receptor; format: functional, cell-based
Estrogen receptor = target: T6, Estrogen receptor (Homo sapiens, UniProt P03372)
T6 sequence (P03372 whole entry): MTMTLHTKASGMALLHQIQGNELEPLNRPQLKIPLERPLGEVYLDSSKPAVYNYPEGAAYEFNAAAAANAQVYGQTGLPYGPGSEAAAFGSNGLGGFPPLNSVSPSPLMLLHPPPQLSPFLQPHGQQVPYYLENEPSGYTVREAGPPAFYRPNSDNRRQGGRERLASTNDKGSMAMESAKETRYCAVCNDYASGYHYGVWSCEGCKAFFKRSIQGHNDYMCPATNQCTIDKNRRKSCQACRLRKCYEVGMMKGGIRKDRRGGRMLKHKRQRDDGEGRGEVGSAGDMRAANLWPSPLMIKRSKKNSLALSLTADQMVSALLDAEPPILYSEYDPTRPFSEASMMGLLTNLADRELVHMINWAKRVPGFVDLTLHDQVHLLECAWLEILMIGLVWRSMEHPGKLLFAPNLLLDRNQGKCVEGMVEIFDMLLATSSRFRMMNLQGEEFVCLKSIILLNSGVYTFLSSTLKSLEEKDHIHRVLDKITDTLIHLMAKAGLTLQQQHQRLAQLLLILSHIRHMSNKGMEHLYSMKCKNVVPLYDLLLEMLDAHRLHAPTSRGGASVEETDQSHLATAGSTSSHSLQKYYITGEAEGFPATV

[9] = target: 5-hydroxytryptamine receptor 2B (Homo sapiens, UniProt P41595); format: functional, cell-based
Chain of 5-hydroxytryptamine receptor 2B (P41595 whole entry): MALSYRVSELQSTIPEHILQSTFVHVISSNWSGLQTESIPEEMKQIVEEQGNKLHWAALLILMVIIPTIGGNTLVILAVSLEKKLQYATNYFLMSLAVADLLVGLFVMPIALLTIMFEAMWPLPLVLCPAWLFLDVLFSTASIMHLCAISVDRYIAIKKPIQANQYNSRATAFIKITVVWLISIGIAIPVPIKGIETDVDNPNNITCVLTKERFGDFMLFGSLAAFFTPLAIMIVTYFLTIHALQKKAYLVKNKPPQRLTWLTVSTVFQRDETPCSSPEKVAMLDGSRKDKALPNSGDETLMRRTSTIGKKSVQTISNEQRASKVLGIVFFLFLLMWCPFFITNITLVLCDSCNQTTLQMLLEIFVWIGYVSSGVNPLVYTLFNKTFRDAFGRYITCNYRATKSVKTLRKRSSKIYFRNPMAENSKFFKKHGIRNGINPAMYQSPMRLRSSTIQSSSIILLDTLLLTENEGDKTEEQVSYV

[10] = target: Kappa-type opioid receptor (Homo sapiens, UniProt P41145)
Note: assay procedure not described here.

T1 sequence (P21728 whole entry): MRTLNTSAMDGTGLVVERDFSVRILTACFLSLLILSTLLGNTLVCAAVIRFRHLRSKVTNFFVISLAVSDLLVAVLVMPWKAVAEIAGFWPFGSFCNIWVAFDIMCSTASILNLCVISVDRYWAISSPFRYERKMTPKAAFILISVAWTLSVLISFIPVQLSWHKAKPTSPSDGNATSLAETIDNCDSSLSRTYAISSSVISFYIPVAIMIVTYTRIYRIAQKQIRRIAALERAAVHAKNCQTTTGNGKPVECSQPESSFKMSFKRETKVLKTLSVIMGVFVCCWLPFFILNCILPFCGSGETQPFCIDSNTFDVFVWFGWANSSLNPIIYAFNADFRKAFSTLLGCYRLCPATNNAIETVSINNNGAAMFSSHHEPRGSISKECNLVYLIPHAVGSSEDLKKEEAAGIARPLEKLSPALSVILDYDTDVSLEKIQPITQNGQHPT

Row | Compound | AC50 (D(1A) dopamine receptor [1]) [µM] | AC50 [2] [µM] | AC50 (Mu-type opioid receptor) [µM] | AC50 [3] [µM] | AC50 (Thromboxane A2 receptor) [µM] | AC50 [4] [µM] | AC50 [5] [µM] | AC50 [6] [µM] | AC50 [7] [µM] | AC50 (Cannabinoid receptor 1) [µM] | AC50 (D(1A) dopamine receptor [8]) [µM] | AC50 (Estrogen receptor) [µM] | AC50 [9] [µM] | AC50 [10] [µM]
1 | CC(=O)O[C@]1(C(C)=O)CC[C@H]2[C@@H]3C=C(Cl)C4=CC(=O)CC[C@]4(C)[C@H]3CC[C@@]21C [CHLORMADINONE ACETATE] | > 30 | > 30 | > 30 | > 30 | 28.5 |  |  |  |  |  |  |  |  | 
2 | C=CCSCC1Nc2cc(Cl)c(S(N)(=O)=O)cc2S(=O)(=O)N1 (stereo not given) [ALTHIAZIDE] | > 30 | > 30 | > 30 | > 30 | > 30 |  |  |  |  |  |  |  |  | 
3 | COc1cc(N2CCC(N3CCN(C)CC3)CC2)ccc1Nc1ncc(Cl)c(Nc2ccccc2P(C)(C)=O)n1 [BRIGATINIB] | > 30 | > 30 | > 30 | 26.3 | > 30 |  |  |  |  |  |  |  |  | 
4 | CC1(C)S[C@@H]2[C@H](NC(=O)[C@H](N)c3ccccc3)C(=O)N2[C@H]1C(=O)OCOC(=O)[C@@H]1N2C(=O)C[C@H]2S(=O)(=O)C1(C)C [SULTAMICILLIN] |  |  |  |  |  | > 30 | > 30 | > 30 | > 30 | > 30 | > 30 | > 30 | > 30 | > 30
5 | CCCc1nc(C(C)(C)O)c(C(=O)O)n1Cc1ccc(-c2ccccc2-c2nnn[nH]2)cc1 [OLMESARTAN] | > 30 | > 30 | > 30 | > 30 | > 30 |  |  |  |  |  |  |  |  | 
6 | c1ccc2c(c1)CCc1ccccc1N2C1CN2CCC1CC2 (stereo not given) [QUINUPRAMINE] | 2.41 | 23.3 | 1.84 | > 30 | > 30 |  |  |  |  |  |  |  |  | 
7 | C=C1CC[C@H](O)C/C1=C/C=C1\CCC[C@]2(C)[C@@H]([C@H](C)/C=C/[C@H](C)C(C)C)CC[C@@H]12 [ERGOCALCIFEROL] | > 30 | > 30 | > 30 | > 30 | > 30 |  |  |  |  |  |  |  |  | 
8 | Cc1cc(N)c2ccccc2[n+]1CCCCCCCCCC[n+]1c(C)cc(N)c2ccccc21 | 1.04 | 2.53 | 0.684 | 1.57 | > 30 |  |  |  |  |  |  |  |  | 
9 | CCOC(=O)N1CSC[C@H]1C(=O)O [TELMESTEINE] | > 30 | > 30 | > 30 | > 30 | > 30 |  |  |  |  |  |  |  |  | 
10 | COC(=O)c1ccc(O)cc1 [METHYLPARABEN] | > 30 | > 30 | > 30 | > 1 | > 30 |  |  |  |  |  |  |  |  | 
11 | CC1=CCC(C(C)(C)O)CC1O (stereo not given) [SOBREROL] | > 30 | > 30 | > 30 | > 30 | > 30 |  |  |  |  |  |  |  |  | 
12 | NCC(CC(=O)O)c1ccccc1 (stereo not given) [PHENIBUT] | > 30 | > 30 | > 30 | > 30 | > 30 |  |  |  |  |  |  |  |  | 
13 | CN1C(=O)/C(=N\NC(N)=S)c2ccccc21 [METHISAZONE] | > 30 | > 30 | > 30 | > 30 | > 10 |  |  |  |  |  |  |  |  | 
14 | CCOC(=O)[C@H](CCc1ccccc1)N[C@@H](C)C(=O)N(CC(=O)O)C1Cc2ccccc2C1 | > 30 | > 30 | > 30 | > 30 | > 30 |  |  |  |  |  |  |  |  | 
15 | Cc1ncc(COP(=O)(O)O)c(C=O)c1O [PYRIDOXAL PHOSPHATE ANHYDROUS] | > 30 | > 30 | > 30 | 6.68 | > 30 |  |  |  |  |  |  |  |  | 
16 | Cc1ccccc1N1CCN(CCc2nnc3n2CCCC3)CC1 [DAPIPRAZOLE] | > 30 | 0.628 | > 30 | > 30 | > 30 |  |  |  |  |  |  |  |  | 
17 | C[C@H](Cc1cc2c(c(C(N)=O)c1)N(CCCO)CC2)NCCOc1ccccc1OCC(F)(F)F [SILODOSIN] | 10.8 | 0.003 | 3.34 | 15 | > 30 |  |  |  |  |  |  |  |  | 
18 | C#C[C@]1(OC(C)=O)CC[C@H]2[C@@H]3CCC4=C/C(=N/O)CC[C@@H]4[C@H]3CC[C@@]21CC [NORGESTIMATE] |  |  |  |  |  | > 30 | > 30 | > 30 | > 30 | > 30 | > 30 | > 30 | > 30 | > 30
19 | COCC1=C(C(=O)O)N2C(=O)[C@@H](NC(=O)/C(=N\OC)c3csc(N)n3)[C@H]2SC1 [CEFPODOXIME] |  |  |  |  |  | > 30 | > 30 | > 30 | > 30 | > 30 | > 30 | > 30 | > 30 | > 30
20 | CC(C)(C)NC[C@H](O)COc1cccc2c1CCCC2=O [LEVOBUNOLOL] | > 30 | 0.886 | > 30 | > 30 | > 30 |  |  |  |  |  |  |  |  | 
21 | OC1(c2ccc(Cl)cc2)c2ccccc2C2=NCCN21 (stereo not given) [MAZINDOL] |  |  |  |  |  | > 30 | > 30 | > 10 | > 30 | > 30 | > 30 | > 30 | > 30 | > 30
22 | COc1cc2c(cc1OC)CC(=O)N(CCCN(C)C[C@H]1Cc3cc(OC)c(OC)cc31)CC2 [IVABRADINE] | > 30 | 5.81 | > 30 | > 30 | > 30 |  |  |  |  |  |  |  |  | 
23 | Clc1ccc2c(N3CCN(CCCN4CCN(c5ccnc6cc(Cl)ccc56)CC4)CC3)ccnc2c1 [PIPERAQUINE] |  |  |  |  |  | > 30 | > 30 | > 30 | > 30 | > 30 | > 30 | > 30 | > 30 | 17
24 | CC(N)Cc1ccc(O)cc1 (stereo not given) [HYDROXYAMPHETAMINE] | > 30 | > 30 | > 30 | > 30 | > 30 |  |  |  |  |  |  |  |  | 
25 | COc1ccc(CN(CCN(C)C)c2ccccn2)cc1 [PYRILAMINE] | 24.2 | 26.4 | 9.05 | > 30 | > 30 |  |  |  |  |  |  |  |  | 
